# Data reported in ChEMBL document CHEMBL5137009, “On the Utility of Chemical Strategies to Improve Peptide Gut Stability” (J Med Chem, 2022).
# *1 amine or outer side, *2 acyl side, *3 side chain or, on linkers, in order; H or OH if unused. Where a SMILES comes first, the peptide text is derived from it. Bridges are numbered along the chain shown (N, C = ends). X1 = O=C(CCC[*:2])[*:1]
# Experiment: Stability of the compound in simulated intestinal fluid at pH 6.8 assessed as half life measured up to 24 hrs by RP-HPLC-UV analysis
# Assay type: ADME
row,Structure (SMILES),half-life
1,CC[C@H](C)[C@@H]1NC(=O)[C@H](Cc2ccc(O)cc2)NC(=O)[C@@H](N)CSSC[C@@H](C(=O)N2CCC[C@H]2C(=O)N[C@@H](CC(C)C)C(=O)N(C)CC(N)=O)NC(=O)[C@H](CC(N)=O)NC(=O)[C@H](CCC(N)=O)NC1=O,2.9 h
2,CC(C)C[C@@H]1NC(=O)CNC(=O)[C@H](CC(N)=O)NC(=O)[C@H](CCCNC(=N)N)NC(=O)[C@H]([C@@H](C)O)NC(=O)[C@@H]2CSSC[C@@H]3NC(=O)[C@H]([C@@H](C)O)NC(=O)CNC(=O)CNC(=O)[C@H](C(C)C)NC(=O)[C@@H]4CSSC[C@H](NC(=O)[C@H]([C@@H](C)O)NC(=O)[C@H](CSSC[C@H](NC(=O)[C@H](C(C)C)NC(=O)[C@@H]5CCCN5C1=O)C(=O)NCC(=O)N[C@@H](CCC(=O)O)C(=O)N[C@@H]([C@@H](C)O)C(=O)N4)NC(=O)CNC(=O)[C@@H]1CCCN1C(=O)[C@H]([C@@H](C)O)NC(=O)[C@H](CC(N)=O)NC3=O)C(=O)N[C@@H](CO)C(=O)N[C@@H](Cc1c[nH]c3ccccc13)C(=O)N1CCC[C@H]1C(=O)N[C@@H](C(C)C)C(=O)N2,> 24 h
3,CC[C@H](C)[C@@H]1NC(=O)[C@H](Cc2ccc(O)cc2)NC(=O)[C@@H]2CSSC[C@@H]3NC(=O)[C@H](C(C)C)NC(=O)[C@@H]4CCCN4C(=O)[C@H](Cc4c[nH]c5ccccc45)NC(=O)[C@H](CO)NC(=O)[C@@H]4CSSC[C@H](NC(=O)[C@H]([C@@H](C)O)NC(=O)[C@H](CCC(=O)O)NC(=O)CNC(=O)[C@H](CSSC[C@H](NC(=O)[C@H](CC(N)=O)NC(=O)[C@H](CCC(N)=O)NC1=O)C(=O)N[C@@H]([C@@H](C)O)C(=O)N4)NC(=O)[C@H](C(C)C)NC(=O)[C@@H]1CCCN1C(=O)[C@H](CC(C)C)NC(=O)CNC(=O)[C@H](CC(N)=O)NC(=O)[C@H](CCCNC(=N)N)NC(=O)[C@H]([C@@H](C)O)NC3=O)C(=O)N[C@@H](C(C)C)C(=O)NCC(=O)NCC(=O)N[C@@H]([C@@H](C)O)C(=O)N2,> 24 h
4,CC[C@H](C)[C@@H]1NC(=O)[C@H](Cc2ccc(O)cc2)NC(=O)[C@@H](N)CSSC[C@@H](C(=O)N2CCC[C@H]2C(=O)N[C@@](C)(CC(C)C)C(=O)NCC(N)=O)NC(=O)[C@H](CC(N)=O)NC(=O)[C@H](CCC(N)=O)NC1=O,4.4 h
5,CC[C@H](C)[C@@H]1NC(=O)[C@H](Cc2ccc(O)cc2)NC(=O)[C@@H]2CSSC[C@@H]3NC(=O)[C@H]([C@@H](C)CC)NC(=O)[C@@H]4CCCN4C(=O)[C@H](Cc4c[nH]c5ccccc45)NC(=O)[C@H](CO)NC(=O)[C@@H]4CSSC[C@H](NC(=O)[C@H]([C@@H](C)O)NC(=O)[C@H](CCC(=O)O)NC(=O)CNC(=O)[C@H](CSSC[C@H](NC(=O)[C@H](CC(N)=O)NC(=O)[C@H]([C@@H](C)O)NC1=O)C(=O)N[C@@H]([C@@H](C)O)C(=O)N4)NC(=O)[C@H](C(C)C)NC(=O)[C@@H]1CCCN1C(=O)[C@H](CC(C)C)NC(=O)CNC(=O)[C@H](CC(N)=O)NC(=O)[C@H](CCCNC(=N)N)NC(=O)[C@H](CCCCN)NC3=O)C(=O)N[C@@H]([C@@H](C)O)C(=O)N[C@@H](CC(C)C)C(=O)NCC(=O)N[C@@H]([C@@H](C)O)C(=O)N2,> 24 h
6,CC[C@H](C)[C@@H]1NC(=O)[C@H](Cc2ccc(O)cc2)NC(=O)[C@@H](N)CSSC[C@@H](C(=O)N2CCC[C@H]2C(=O)N[C@H](CC(=O)NCC(N)=O)CC(C)C)NC(=O)[C@H](CC(N)=O)NC(=O)[C@H](CCC(N)=O)NC1=O,3.6 h
7,CC[C@H](C)[C@@H]1NC(=O)[C@H](Cc2ccc(O)cc2)NC(=O)[C@@H]2CSSC[C@@H]3NC(=O)[C@H](C(C)C)NC(=O)[C@@H]4CCCN4C(=O)[C@H](Cc4c[nH]c5ccccc45)NC(=O)[C@H](CO)NC(=O)[C@@H]4CSSC[C@H](NC(=O)[C@H]([C@@H](C)O)NC(=O)[C@H](CCC(=O)O)NC(=O)CNC(=O)[C@H](CSSC[C@H](NC(=O)[C@H](CC(N)=O)NC(=O)[C@H]([C@@H](C)O)NC1=O)C(=O)N[C@@H]([C@@H](C)O)C(=O)N4)NC(=O)[C@H](C(C)C)NC(=O)[C@@H]1CCCN1C(=O)[C@H](CC(C)C)NC(=O)CNC(=O)[C@H](CC(N)=O)NC(=O)[C@H](CCCNC(=N)N)NC(=O)[C@H]([C@@H](C)O)NC3=O)C(=O)N[C@@H](C(C)C)C(=O)NCC(=O)NCC(=O)N[C@@H]([C@@H](C)O)C(=O)N2,> 24 h
8,CC[C@H](C)[C@@H]1NC(=O)[C@@H]2CCCN2C(=O)[C@H](Cc2c[nH]c3ccccc23)NC(=O)[C@H](CO)NC(=O)[C@@H]2CSSC[C@@H]3NC(=O)[C@H]([C@@H](C)O)NC(=O)[C@H](CCC(=O)O)NC(=O)CNC(=O)[C@@H]4CSSC[C@H](NC(=O)CNC(=O)[C@H](CCC(N)=O)NC(=O)[C@H]([C@@H](C)O)NC(=O)[C@H](Cc5ccc(O)cc5)NC(=O)[C@H](CSSC[C@H](NC1=O)C(=O)N[C@@H](CCCCN)C(=O)N[C@@H](CCCNC(=N)N)C(=O)N[C@@H](CC(N)=O)C(=O)NCC(=O)N[C@@H](CC(C)C)C(=O)N1CCC[C@H]1C(=O)N[C@@H](C(C)C)C(=O)N4)NC(=O)[C@H]([C@@H](C)O)NC(=O)CNC(=O)[C@H](CC(C)C)NC(=O)[C@H]([C@@H](C)O)NC3=O)C(=O)N[C@@H]([C@@H](C)O)C(=O)N2,> 24 h
9,CC[C@H](C)[C@@H]1NC(=O)[C@H](Cc2ccc(O)cc2)NC(=O)[C@@H]2CSSC[C@H](NC(=O)[C@H](CC(N)=O)NC(=O)[C@H](CCC(N)=O)NC1=O)C(=O)N1CCC[C@H]1C(=O)N[C@@H](CC(C)C)C(=O)NCC(=O)N2,0.117 h
10,CC[C@@H](C)[C@H]1NC(=O)[C@@H](Cc2ccc(O)cc2)NC(=O)[C@H](N)CSSC[C@H](C(=O)N2CCC[C@@H]2C(=O)N[C@H](CC(C)C)C(=O)NCC(N)=O)NC(=O)[C@@H](CC(N)=O)NC(=O)[C@@H](CCC(N)=O)NC1=O,> 24 h
11,"[H][C@@]12CCCN1C(=O)[C@@H]1CSSC[C@H](NC(=O)CNC(=O)[C@H](C)NC(=O)CNC(=O)[C@H](C)NC(=O)CNC(=O)[C@H](C)NC(=O)CNC(=O)[C@H](CC(C)C)NC2=O)C(=O)N[C@@H](Cc2ccc(O)cc2)C(=O)N[C@@H]([C@@H](C)CC)C(=O)N[C@@H](CCC(N)=O)C(=O)N[C@@H](CC(N)=O)C(=O)N1 (HELM PEPTIDE1{A.G.A.G.A.G.C.Y.I.Q.N.C.P.L.G}$PEPTIDE1,PEPTIDE1,7:R3-12:R3|PEPTIDE1,PEPTIDE1,1:R1-15:R2$$$V2.0)",< 0.05 h
12,CC[C@H](C)[C@@H]1NC(=O)[C@@H]2CCCN2C(=O)[C@@H]2CCCN2C(=O)[C@H]([C@@H](C)CC)NC(=O)[C@H](CO)NC(=O)[C@H](CCCCN)NC(=O)[C@H]([C@@H](C)O)NC(=O)[C@@H]2CSSC[C@H](NC1=O)C(=O)N[C@@H](Cc1ccc(OC)cc1)C(=O)N[C@@H](Cc1ccccc1)C(=O)N[C@@H](CCC(N)=O)C(=O)N[C@@H](CC(N)=O)C(=O)N[C@@H](CCCNC(=N)N)C(=O)N1CCC[C@H]1C(=O)N[C@@H](CCCNC(=N)N)C(=O)N2 (cyclo(CTKSIPPICY(Me)FQNRPR); disulfide 1-9),0.05 h

# Experiment: Stability of the compound in simulated gastric fluid at pH 1.2 assessed as half life measured up to 24 hrs by RP-HPLC-UV analysis
# Assay type: ADME
row,Structure (SMILES),half-life
1,CC(C)C[C@@H]1NC(=O)CNC(=O)[C@H](CC(N)=O)NC(=O)[C@H](CCCNC(=N)N)NC(=O)[C@H]([C@@H](C)O)NC(=O)[C@@H]2CSSC[C@@H]3NC(=O)[C@H]([C@@H](C)O)NC(=O)CNC(=O)CNC(=O)[C@H](C(C)C)NC(=O)[C@@H]4CSSC[C@H](NC(=O)[C@H]([C@@H](C)O)NC(=O)[C@H](CSSC[C@H](NC(=O)[C@H](C(C)C)NC(=O)[C@@H]5CCCN5C1=O)C(=O)NCC(=O)N[C@@H](CCC(=O)O)C(=O)N[C@@H]([C@@H](C)O)C(=O)N4)NC(=O)CNC(=O)[C@@H]1CCCN1C(=O)[C@H]([C@@H](C)O)NC(=O)[C@H](CC(N)=O)NC3=O)C(=O)N[C@@H](CO)C(=O)N[C@@H](Cc1c[nH]c3ccccc13)C(=O)N1CCC[C@H]1C(=O)N[C@@H](C(C)C)C(=O)N2,> 24 h
2,CC[C@H](C)[C@@H]1NC(=O)[C@@H]2CCCN2C(=O)[C@H](Cc2c[nH]c3ccccc23)NC(=O)[C@H](CO)NC(=O)[C@@H]2CSSC[C@@H]3NC(=O)[C@H]([C@@H](C)O)NC(=O)[C@H](CCC(=O)O)NC(=O)CNC(=O)[C@@H]4CSSC[C@H](NC(=O)CNC(=O)[C@H](CCC(N)=O)NC(=O)[C@H]([C@@H](C)O)NC(=O)[C@H](Cc5ccc(O)cc5)NC(=O)[C@H](CSSC[C@H](NC1=O)C(=O)N[C@@H](CCCCN)C(=O)N[C@@H](CCCNC(=N)N)C(=O)N[C@@H](CC(N)=O)C(=O)NCC(=O)N[C@@H](CC(C)C)C(=O)N1CCC[C@H]1C(=O)N[C@@H](C(C)C)C(=O)N4)NC(=O)[C@H]([C@@H](C)O)NC(=O)CNC(=O)[C@H](CC(C)C)NC(=O)[C@H]([C@@H](C)O)NC3=O)C(=O)N[C@@H]([C@@H](C)O)C(=O)N2,> 24 h
3,"CC[C@H](C)[C@@H]1NC(=O)[C@@H]2CSSC[C@H](NC(=O)[C@H](CCCNC(=N)N)NC(=O)[C@@H]3CSSC[C@H](NC1=O)C(=O)N[C@@H]([C@@H](C)O)C(=O)N[C@@H](CCCNC(=N)N)C(=O)NCC(=O)N[C@@H](Cc1ccccc1)C(=O)N3)C(=O)N[C@@H](CC(C)C)C(=O)N[C@H]1CSSC[C@H](NC(=O)[C@H](C(C)C)NC(=O)CNC(=O)[C@H](CCCNC(=N)N)NC(=O)[C@H](CCCNC(=N)N)NC1=O)C(=O)N[C@@H](CCCNC(=N)N)C(=O)N2 (HELM PEPTIDE1{G.F.C.R.C.L.C.R.R.G.V.C.R.C.I.C.T.R}$PEPTIDE1,PEPTIDE1,3:R3-16:R3|PEPTIDE1,PEPTIDE1,5:R3-14:R3|PEPTIDE1,PEPTIDE1,7:R3-12:R3|PEPTIDE1,PEPTIDE1,1:R1-18:R2$$$V2.0)",2.2 h
4,CC[C@H](C)[C@@H]1NC(=O)[C@H](Cc2ccc(OC)cc2)NC(=O)CCCSC[C@@H](C(=O)N2CCC[C@H]2C(=O)N[C@@H](CC(C)C)C(=O)NCC(N)=O)NC(=O)[C@H](CC(N)=O)NC(=O)[C@H](CCC(N)=O)NC1=O [CARBETOCIN] (Y(Me)IQNCPLG-NH2; linker N-5 via X1),> 24 h
5,"C[C@@H]1NC(=O)[C@@H]2CCCN2C(=O)[C@H](CC(N)=O)NC(=O)[C@@H]2CSSC[C@H](N)C(=O)N[C@H]3CSSC[C@H](NC1=O)C(=O)N[C@@H]([C@@H](C)O)C(=O)NCC(=O)N[C@H](C(=O)N[C@@H](Cc1ccc(O)cc1)C(=O)O)CSSC[C@H](NC(=O)[C@H](Cc1ccc(O)cc1)NC(=O)[C@H](CCC(=O)O)NC3=O)C(=O)N2 [LINACLOTIDE] (HELM PEPTIDE1{C.C.E.Y.C.C.N.P.A.C.T.G.C.Y}$PEPTIDE1,PEPTIDE1,1:R3-6:R3|PEPTIDE1,PEPTIDE1,2:R3-10:R3|PEPTIDE1,PEPTIDE1,5:R3-13:R3$$$V2.0)",> 24 h
6,C[C@@H](O)[C@@H]1NC(=O)[C@H](CCCCN)NC(=O)[C@@H](Cc2c[nH]c3ccccc23)NC(=O)[C@H](Cc2ccccc2)NC(=O)[C@@H](NC(=O)[C@H](N)Cc2ccccc2)CSSC[C@@H](C(=O)N[C@H](CO)[C@@H](C)O)NC1=O [OCTREOTIDE],> 24 h
7,CC[C@H](C)[C@@H]1NC(=O)[C@H](Cc2ccc(O)cc2)NC(=O)[C@@H](N)CSSC[C@@H](C(=O)N2CCC[C@H]2C(=O)N[C@@H](CC(C)C)C(=O)NCC(N)=O)NC(=O)[C@H](CC(N)=O)NC(=O)[C@H](CCC(N)=O)NC1=O [OXYTOCIN],> 24 h
8,CC(C)C[C@H](NC(=O)[C@@H]1CSSC[C@@H]2NC(=O)[C@H](CC(C)C)NC(=O)[C@H](CCC(=O)O)NC(=O)[C@@H](NC(=O)[C@H](CCC(=O)O)NC(=O)[C@H](CC(=O)O)NC(=O)[C@@H](N)CC(N)=O)CSSC[C@H](NC(=O)[C@H](C)NC(=O)[C@H](C(C)C)NC(=O)[C@H](CC(N)=O)NC(=O)[C@H](C(C)C)NC2=O)C(=O)N[C@@H]([C@@H](C)O)C(=O)NCC(=O)N1)C(=O)O [PLECANATIDE],> 24 h
9,NC(=O)CC[C@@H]1NC(=O)[C@H](Cc2ccccc2)NC(=O)[C@H](Cc2ccc(O)cc2)NC(=O)[C@@H](N)CSSC[C@@H](C(=O)N2CCC[C@H]2C(=O)N[C@@H](CCCN=C(N)N)C(=O)NCC(N)=O)NC(=O)[C@H](CC(N)=O)NC1=O [VASOPRESSIN],> 24 h
